One test has as its system STAT5. Put plainly: STAT5 phosphorylation western blot assay. In kind it is cell-based, human. As to conditions: 10 microM, HEL or K562 cells (table does not say which).
Test [1] concerns STAT5 transcription (pSPI-GLE1-luc) in HEK-GHR cells. Put plainly: HEK-GHR STAT5 transcription assay (luciferase reporter, rhGH stimulated). Type of test: cell-based, human. As to conditions: Homo sapiens, compound 45 minutes before 50 nM rhGH, six hours, read-out: Activity (IC50, reduction of luciferase activity).

pIC50: −log10 of the molar value.

`N#Cc1ccc(C2C3=C(CCCC3=O)OC3=C2C(=O)c2ccccc2C3=O)cc1` (centres unmarked) [Compound 4, 4-(1,6,11-trioxo-2,3,4,6,11,12-hexahydro-1H-benzo[b]xanthen-12-yl)benzonitrile]: the “Activity (inhibition of STAT5 phosphorylation)” value in the test on STAT5 is “+++ (+++represents an inhibition at 10 microM > 75%)”. Also, the pIC50 in test [1] was more than 6.00.

The values above are taken from US20150175585A1, “FUSED QUINONIC COMPOUNDS” (CENTRO ATLANTICO DEL MEDICAMENTO S.A (CEAMED, S.A.), priority 2012, published 2015).
